# Experimental data as given in patent US8568696B2, “Grinding method for the manipulation or preservation of calcium phosphate hybrid properties” (Indiana Nanotech LLC, priority 2008, dated 2013).
# Tests used:
# [1] = Long-term accelerated aging of NaF(aq)-hybrid suspensions, fluoride availability by fluoride-sensitive electrode; format: physicochemical; conditions: supernatant, triplicate
# Description: Long-term accelerated aging studies were performed on NaF(aq)-hybrid suspensions. The experiments were carried out in triplicate with 1 mL of each supernatant aspirated, mixed with 1 mL of TISAB II (1:1), and measured with a fluoride-sensitive electrode calibrated to known standards of 100, 950, and 1900 ppm fluoride.
# The purpose of this study was to determine if the NaF(aq)-hybrid suspensions maintain sufficient fluoride availability. • 0.24% and 0.32% NaF systems were aged for 122 Days @ 40° C. • 0.05% NaF systems were aged for 119 Days @ 40° C. Results
# [2] = In vitro remineralization/demineralization pH cycling study, Vickers surface microhardness of eroded enamel; parameters: species or system Bovine; conditions: change in Vickers microhardness relative to baseline
# Description: An efficacy study was run in order to evaluate in multiple pH remin/demin cycling models the efficacy of calcium phosphate blends prepared as described above in remineralizing eroded enamel. These studies involved 226 ppm fluoride rinse systems.
# The experiment design for the remineralization/demineralization pH cycling study is as follows. Bovine enamel specimens were extracted, ground, and polished. Initial erosion was performed by immersing each enamel specimen in 10 ml of 1% citric acid (pH=3.8) for 30 minutes. After the immersion, four baseline Vickers indentations under a 200 gf load for 15 seconds were made on each specimen and those with a Vickers microhardness number between 200 and 230 VHN were selected for the study. There were three groups in this study (N=10 specimens per group): • Group 1: negative control (DI water) • Group 2: positive control (226 ppm F) • Group 3: 226 ppm F plus 0.004% β-tricalcium phosphate-silica-carbamide
# The cycling regimen consisted of five, two-minute/day acid challenges and three, two-minute treatments/day. In between treatments and acid challenges, each specimen was immersed in artificial mineral mix. This process was repeated up to 20 days, after which a post-cycle acid challenge was administered using 1% citric acid (pH=3.8) for 11 minutes. The specimens were evaluated for Vickers surface microhardness after 10 and 20 days as well as after the post-cycle acid challenge. The change in Vickers microhardness relative to baseline values was then used as the performance gauge. Remineralization efficacy was evaluated by comparing post surface Vickers microhardness numbers to baseline surface Vickers values. Means and standard deviations of the means were calculated and the Student Q-test was employed to assess accuracy of the individual specimen measurements within each group. […]
# This cycling study evaluated the β-tricalcium phosphate-silica-carbamide blend when combined in a 226 ppm fluoride (NaF(aq)) solution and tested in a pH cycling model. […]
structure (smiles),measurement,setting,value
[F-].[Na+] [0.32% NaF Control],Mean ppm F ± Std. Dev,[1]; aged for 122 Days @ 40° C.,1493.3 ± 3.3 ppm F
[F-].[Na+] [0.24% NaF Control],Mean ppm F ± Std. Dev,[1]; aged for 122 Days @ 40° C.,1080.7 ± 4.8 ppm F
[F-].[Na+] [Group 2],"Mean ΔVHN ± SEM, after 10 days","[2]; 10 days pH cycling, N=10 specimens per group",73.2 ± 7.0^2
same,"Mean ΔVHN ± SEM, after 20 days","[2]; 20 days pH cycling, N=10 specimens per group",67.6 ± 7.6^2
same,"Mean ΔVHN ± SEM, after post-cycle acid challenge","[2]; after 11-minute post-cycle acid challenge, 1% citric acid pH 3.8",81.9 ± 7.1^2
[F-].[Na+] [0.05% NaF Control],Mean ppm F ± Std. Dev,[1]; aged for 119 Days @ 40° C.,231.7 ± 0.5 ppm F
